# Measured values published in PubChem BioAssay (NCI).
#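 A five-concentration, 48-hour dose response in 96-well plates underlies each endpoint, interpolated linearly between surrounding concentrations. GI50 is the concentration that inhibits growth by half. TGI: concentration producing complete growth inhibition.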
# Columns and labels:
# Test in all cases: inhibition of tumour cell growth, NCI panel, 48 h
# T-47D breast = tested on: T-47D breast
# BT-549 breast = tested on: BT-549 breast
# MCF7 breast = tested on: MCF7 breast
# NCI-H23 lung = tested on: NCI-H23 lung
# OVCAR-5 ovarian = tested on: OVCAR-5 ovarian
# NCI-H522 lung = tested on: NCI-H522 lung
# MALME-3M melanoma = tested on: MALME-3M melanoma
# SK-OV-3 ovarian = tested on: SK-OV-3 ovarian
# SNB-75 CNS = tested on: SNB-75 CNS
# OVCAR-4 ovarian = tested on: OVCAR-4 ovarian
# LOX IMVI melanoma = tested on: LOX IMVI melanoma
# MDA-MB-435 = tested on: MDA-MB-435
# SW-620 colon = tested on: SW-620 colon
# COLO 205 colon = tested on: COLO 205 colon
# SF-268 CNS = tested on: SF-268 CNS
# SNB-19 CNS = tested on: SNB-19 CNS
# 786-0 renal = tested on: 786-0 renal
# UO-31 renal = tested on: UO-31 renal
# PC-3 prostate = tested on: PC-3 prostate
# UACC-257 melanoma = tested on: UACC-257 melanoma
# ACHN renal = tested on: ACHN renal
# SN12C renal = tested on: SN12C renal
# HOP-92 NSCLC = tested on: HOP-92 NSCLC
# DU-145 prostate = tested on: DU-145 prostate
# RPMI-8226 leukemia = tested on: RPMI-8226 leukemia
# OVCAR-8 ovarian = tested on: OVCAR-8 ovarian
# NCI-H460 lung = tested on: NCI-H460 lung
# HOP-62 NSCLC = tested on: HOP-62 NSCLC
# SK-MEL-2 melanoma = tested on: SK-MEL-2 melanoma
# OVCAR-3 ovarian = tested on: OVCAR-3 ovarian
# SF-539 CNS = tested on: SF-539 CNS
# U251 CNS = tested on: U251 CNS
# SK-MEL-28 melanoma = tested on: SK-MEL-28 melanoma
# IGROV1 ovarian = tested on: IGROV1 ovarian
# CAKI-1 renal = tested on: CAKI-1 renal
# K-562 leukemia = tested on: K-562 leukemia
# NCI-H226 lung = tested on: NCI-H226 lung
# HCT-15 colon = tested on: HCT-15 colon
# HS 578T breast = tested on: HS 578T breast
# A498 renal = tested on: A498 renal
# HCC-2998 colon = tested on: HCC-2998 colon
# A549 NSCLC = tested on: A549 NSCLC
# MDA-MB-231 breast = tested on: MDA-MB-231 breast
# UACC-62 melanoma = tested on: UACC-62 melanoma
# M14 melanoma = tested on: M14 melanoma
# SR leukemia = tested on: SR leukemia
# KM12 colon = tested on: KM12 colon
# MOLT-4 leukemia = tested on: MOLT-4 leukemia
# TK-10 renal = tested on: TK-10 renal
# SK-MEL-5 melanoma = tested on: SK-MEL-5 melanoma
# HCT-116 colon = tested on: HCT-116 colon
# CCRF-CEM leukemia = tested on: CCRF-CEM leukemia
# RXF 393 renal = tested on: RXF 393 renal
# HL-60(TB) leukemia = tested on: HL-60(TB) leukemia
# NCI/ADR-RES ovarian = tested on: NCI/ADR-RES ovarian
# HT29 colon = tested on: HT29 colon
smiles,measurement,setting,value
CCOC(=O)N1C/C(=C/c2ccc(F)cc2)C(=O)/C(=C/c2ccc(F)cc2)C1,GI50,T-47D breast,2820 nM
same,TGI,T-47D breast,7.97 µM
same,GI50,BT-549 breast,1650 nM
same,TGI,BT-549 breast,3.09 µM
same,GI50,MCF7 breast,327 nM
same,TGI,MCF7 breast,1390 nM
same,GI50,NCI-H23 lung,2350 nM
same,TGI,NCI-H23 lung,5.67 µM
same,GI50,OVCAR-5 ovarian,1890 nM
same,TGI,OVCAR-5 ovarian,3.83 µM
same,GI50,NCI-H522 lung,1950 nM
same,TGI,NCI-H522 lung,3.98 µM
same,GI50,MALME-3M melanoma,2340 nM
same,TGI,MALME-3M melanoma,5.58 µM
same,GI50,SK-OV-3 ovarian,2220 nM
same,TGI,SK-OV-3 ovarian,4.71 µM
same,GI50,SNB-75 CNS,2600 nM
same,TGI,SNB-75 CNS,10.7 µM
same,GI50,OVCAR-4 ovarian,2240 nM
same,TGI,OVCAR-4 ovarian,6.38 µM
same,GI50,LOX IMVI melanoma,327 nM
same,TGI,LOX IMVI melanoma,1100 nM
same,GI50,MDA-MB-435,1220 nM
same,TGI,MDA-MB-435,3.73 µM
same,GI50,SW-620 colon,487 nM
same,TGI,SW-620 colon,1740 nM
same,GI50,COLO 205 colon,1920 nM
same,TGI,COLO 205 colon,3.54 µM
same,GI50,SF-268 CNS,2200 nM
same,TGI,SF-268 CNS,5.52 µM
same,GI50,SNB-19 CNS,2080 nM
same,TGI,SNB-19 CNS,6.31 µM
same,GI50,786-0 renal,1690 nM
same,TGI,786-0 renal,3.62 µM
same,GI50,UO-31 renal,1530 nM
same,TGI,UO-31 renal,3.07 µM
same,GI50,PC-3 prostate,1850 nM
same,TGI,PC-3 prostate,5.46 µM
same,GI50,UACC-257 melanoma,2860 nM
same,TGI,UACC-257 melanoma,9.65 µM
same,GI50,ACHN renal,1860 nM
same,TGI,ACHN renal,3.42 µM
same,GI50,SN12C renal,1590 nM
same,TGI,SN12C renal,3.16 µM
same,GI50,HOP-92 NSCLC,1650 nM
same,TGI,HOP-92 NSCLC,4.64 µM
same,GI50,DU-145 prostate,3.48 µM
same,TGI,DU-145 prostate,10.9 µM
same,GI50,RPMI-8226 leukemia,201 nM
same,TGI,RPMI-8226 leukemia,772 nM
same,GI50,OVCAR-8 ovarian,2470 nM
same,TGI,OVCAR-8 ovarian,10.8 µM
same,GI50,NCI-H460 lung,1960 nM
same,TGI,NCI-H460 lung,4.56 µM
same,GI50,HOP-62 NSCLC,2100 nM
same,TGI,HOP-62 NSCLC,4.24 µM
same,GI50,SK-MEL-2 melanoma,2880 nM
same,TGI,SK-MEL-2 melanoma,6.39 µM
same,GI50,OVCAR-3 ovarian,1850 nM
same,TGI,OVCAR-3 ovarian,3.47 µM
same,GI50,SF-539 CNS,1760 nM
same,TGI,SF-539 CNS,3.3 µM
same,GI50,U251 CNS,1190 nM
same,TGI,U251 CNS,2550 nM
same,GI50,SK-MEL-28 melanoma,1800 nM
same,TGI,SK-MEL-28 melanoma,3.35 µM
same,GI50,IGROV1 ovarian,2390 nM
same,TGI,IGROV1 ovarian,6.12 µM
same,GI50,CAKI-1 renal,3.01 µM
same,TGI,CAKI-1 renal,12.1 µM
same,GI50,K-562 leukemia,754 nM
same,TGI,K-562 leukemia,> 100 µM
same,GI50,NCI-H226 lung,3.52 µM
same,TGI,NCI-H226 lung,19.8 µM
same,GI50,HCT-15 colon,1160 nM
same,TGI,HCT-15 colon,3.02 µM
same,GI50,HS 578T breast,3.13 µM
same,TGI,HS 578T breast,29 µM
same,GI50,A498 renal,2160 nM
same,TGI,A498 renal,5.12 µM
same,GI50,HCC-2998 colon,1840 nM
same,TGI,HCC-2998 colon,3.29 µM
same,GI50,A549 NSCLC,2640 nM
same,TGI,A549 NSCLC,8.65 µM
same,GI50,MDA-MB-231 breast,1810 nM
same,TGI,MDA-MB-231 breast,4.18 µM
same,GI50,UACC-62 melanoma,1610 nM
same,TGI,UACC-62 melanoma,3.39 µM
same,GI50,M14 melanoma,2070 nM
same,TGI,M14 melanoma,4.67 µM
same,GI50,SR leukemia,341 nM
same,TGI,SR leukemia,3.61 µM
same,GI50,KM12 colon,641 nM
same,TGI,KM12 colon,2040 nM
same,GI50,MOLT-4 leukemia,2600 nM
same,TGI,MOLT-4 leukemia,7.84 µM
same,GI50,TK-10 renal,2870 nM
same,TGI,TK-10 renal,6.99 µM
same,GI50,SK-MEL-5 melanoma,1360 nM
same,TGI,SK-MEL-5 melanoma,2670 nM
same,GI50,HCT-116 colon,205 nM
same,TGI,HCT-116 colon,397 nM
same,GI50,CCRF-CEM leukemia,758 nM
same,TGI,CCRF-CEM leukemia,5.64 µM
same,GI50,RXF 393 renal,1630 nM
same,TGI,RXF 393 renal,3.11 µM
same,GI50,HL-60(TB) leukemia,3.18 µM
same,TGI,HL-60(TB) leukemia,10.6 µM
same,GI50,NCI/ADR-RES ovarian,3.28 µM
same,TGI,NCI/ADR-RES ovarian,21.1 µM
same,GI50,HT29 colon,363 nM
same,TGI,HT29 colon,1370 nM
